Assay results as given in patent US5939096A, “Liposome drug-loading method and composition” (priority 1997, dated 1999).
Where two headings read alike, the source gives them in different places.

How the values were obtained:
[1] = not told, cited from earlier work
[2] = n-octanol/water, cited from earlier work
[3] = Permeability coefficient in HPC/cholesterol extruded vesicles; conditions: not told, permeability coefficient P, 60/40 HPC/cholesterol extruded vesicles (Table II)
Procedure: ^e in 60/40 (mol/mol) HPC/cholesterolextruded vesicles, at 25°
^e in 60/40 (mol/mol) HPC/cholesterolextruded vesicles.

[4] = Loading and calcium ionophore (A23187)-promoted release of entrapped nalidixic acid
Procedure: (FIG. 8, solid line) and 60° C. (broken line), respectively.
The experiment was carried out at two different temperatures to investigate how changes in lipid phase (i.e., gel versus liquid-crystalline) affects the penetration of molecules into the bilayer. When the suspension was incubated at 25° C.
A calcium ionophore, A23187, (10 micromolar) was added at either t=700 s (25° C.; FIG. 8--solid line) or at 350 s (60° C.; FIG. 8--broken line), and the fluorescence was monitored over the course of the experiment.

[5] = Table II; cited from earlier work
[6] = pH 9

5(6)-carboxyfluorescein
permeability coefficient P ([1]; pH 7): 8.1e-05 ×10⁻⁶ cm/s | permeability coefficient P ([1]; pH 8.2): 7.2e-07 ×10⁻⁶ cm/s | partition coefficient Kp ([2]; pH 6.9): 2.8 × 10^-3 | partition coefficient Kp ([2]; pH 8): 6.0 × 10^-5

CCn1cc(C(=O)O)c(=O)c2ccc(C)nc21 [nalidixic acid]
Papp ([3]; 25° C.): 0.014 ×10⁻⁶ cm/s | Papp ([3]; 60° C.): 0.17 ×10⁻⁶ cm/s | loading t1/2 ([4]; 25° C.): 84 s | loading t1/2 ([4]; 60° C.): 7 s | enhancement of loading rate ([4]; 60° C. versus 25° C.): one order of magnitude | pKa [5]: 6.13

O=S(=O)(O)c1cc(O)c2ccc3c(S(=O)(=O)O)cc(S(=O)(=O)O)c4ccc1c2c34 [pyranine, 8-Hydroxypyrene-1,3,6-trisulfonic acid]
n-octanol/water partition coefficient Kp [6]: < 3 × 10^-5
